Assay results reported in patent publication US20150342968A1, “STABLE PHARMACEUTICAL COMPOSITION FOR TREATING OSTEOPOROSIS” (LANDSTEINER SCIENTIFIC S.A. DE C.V., priority 2012, published 2015).
Values joined by “and” are separate entries in the source; they are usually repeats but may differ in a detail not shown here. Equal values may be shown once.

How the values were obtained:
[1] = cited from earlier work
[2] = Evaluation of the stability of risedronate sodium in tablets of composition in Table 1; format: physicochemical
Description: (§1) Two stability tests of vitamin D3 and risedronate sodium were performed at different conditions by subjecting the tablets that were prepared according to the composition in Table 1. The conditions were as follows:
(§2) Two batches of the composition were subjected to different conditions to evaluate the stability of vitamin D3 and risedronate sodium. The conditions were the following: 30° C./65% RH, 40° C./75% RH and Cycled 40° C./75% RH-Cooling (2°-8° C.). The samples were submitted for 4 weeks and the following results were obtained.
Evaluation of the Stability of Risedronate Sodium

[3] = Dissolution acid stage (gastro-resistance) of tablets of composition in Table 1; format: physicochemical
Description: as §1
The product complies with the gastro-resistant stage, because it has an enteric coating to protect the mucous membranes while it passes through the gastrointestinal system.

[4] = cited from earlier work; remark: listed apart in the source
[5] = Dissolution buffer stage pH 6.8 of tablets of composition in Table 1; format: physicochemical
Description: as §1
It is evident that the risedronate sodium dissolves quickly in a medium with pH 6.8, obtaining more than 100% in the first 10 minutes.

[6] = Evaluation of the stability of vitamin D3 in tablets of composition in Table 1; format: physicochemical
Description: as §1
Evaluation Of The Stability Of Vitamin D3
as §2

O=P(O)(O)C(O)(Cc1cccnc1)P(=O)(O)O [Risedronate sodium, risedronate sodium]
injected dose recovered in the urine ([1]; after 28 days): 85%
Tmax ([1]; after an oral dose): ~1 h
part of the absorbed dose excreted in the urine ([1]; first 24 hours): One half
mean volume of distribution at steady state equilibrium ([1]; humans): 6.3 L/kg
Risedronate sodium stability, Final ([2]; Test 1, final (4 weeks)): 100.66%
Risedronate sodium stability, Initial ([2]; Test 1, initial): 102.55%
Risedronate sodium stability, Final ([2]; Test 2, final (4 weeks)): 96.75%
Risedronate sodium stability, Initial ([2]; Test 2, initial): 100.99%
Risedronate sodium Acid Stage % Dissolved ([3]; individual samples S1-S6, specification no more than 10.0%): 0.97% and 0.56% and 0.80% and 0.95% and 1.19% and 0.71%
Risedronate sodium Acid Stage % Dissolved, Maximum ([3]; maximum of S1-S6): 1.19%
Risedronate sodium Acid Stage % Dissolved, Mean ([3]; mean of S1-S6): 0.86%
Risedronate sodium Acid Stage % Dissolved, Minimum ([3]; minimum of S1-S6): 0.56%
plasmatic protein binding [4]: 24%
Dissolution buffer stage, dissolved ([5]; pH 6.8, 5 min): 94.08%
Dissolution buffer stage, dissolved ([5]; pH 6.8, 10 min): more than 100%
Dissolution buffer stage, dissolved ([5]; pH 6.8, 10 min, listed as Risedronate Sodium 35 mg): 100.93%
Dissolution buffer stage, dissolved ([5]; pH 6.8, 15 min): 100.84%
Dissolution buffer stage, dissolved ([5]; pH 6.8, 20 min): 100.94%
Dissolution buffer stage, dissolved ([5]; pH 6.8, 30 min): 100.12%
Dissolution buffer stage, dissolved ([5]; pH 6.8, 45 min): 100.48%

C=C1CC[C@H](O)C/C1=C/C=C1\CCC[C@]2(C)[C@@H]([C@H](C)CCCC(C)C)CC[C@@H]12 [Vitamin D3, cholecalciferol]
Vitamin D3 rating (stability) ([6]; Test 1, week 0, 30° C./65% RH): 100.00%
Vitamin D3 rating (stability) ([6]; Test 1, week 0, 40° C./75% RH): 100.00%
Vitamin D3 rating (stability) ([6]; Test 1, week 0, Cycled 40° C./75% RH-cooling): 100.00%
Vitamin D3 rating (stability) ([6]; Test 1, week 1, 30° C./65% RH): 102.02%
Vitamin D3 rating (stability) ([6]; Test 1, week 1, 40° C./75% RH): 98.34%
Vitamin D3 rating (stability) ([6]; Test 1, week 1, Cycled 40° C./75% RH-cooling): 98.69%
Vitamin D3 rating (stability) ([6]; Test 1, week 2, 30° C./65% RH): 99.20%
Vitamin D3 rating (stability) ([6]; Test 1, week 2, 40° C./75% RH): 98.12%
Vitamin D3 rating (stability) ([6]; Test 1, week 2, Cycled 40° C./75% RH-cooling): 97.90%
Vitamin D3 rating (stability) ([6]; Test 1, week 4, 30° C./65% RH): 96.39%
Vitamin D3 rating (stability) ([6]; Test 1, week 4, 40° C./75% RH): 96.03%
Vitamin D3 rating (stability) ([6]; Test 1, week 4, Cycled 40° C./75% RH-cooling): 96.09%
Vitamin D3 rating (stability) ([6]; Test 2, week 0, 30° C./65% RH): 100.00%
Vitamin D3 rating (stability) ([6]; Test 2, week 0, 40° C./75% RH): 100.00%
Vitamin D3 rating (stability) ([6]; Test 2, week 0, Cycled 40° C./75% RH-cooling): 100.00%
Vitamin D3 rating (stability) ([6]; Test 2, week 1, 30° C./65% RH): 97.34%
Vitamin D3 rating (stability) ([6]; Test 2, week 1, 40° C./75% RH): 99.62%
Vitamin D3 rating (stability) ([6]; Test 2, week 1, Cycled 40° C./75% RH-cooling): 95.55%
Vitamin D3 rating (stability) ([6]; Test 2, week 2, 30° C./65% RH): 96.93%
Vitamin D3 rating (stability) ([6]; Test 2, week 2, 40° C./75% RH): 97.80%
Vitamin D3 rating (stability) ([6]; Test 2, week 2, Cycled 40° C./75% RH-cooling): 96.31%
Vitamin D3 rating (stability) ([6]; Test 2, week 4, 30° C./65% RH): 94.79%
Vitamin D3 rating (stability) ([6]; Test 2, week 4, 40° C./75% RH): 96.32%
Vitamin D3 rating (stability) ([6]; Test 2, week 4, Cycled 40° C./75% RH-cooling): 94.79%
decrease in the vitamin D3 rating ([6]; over the four weeks under the different conditions): 5.96%
